In ChEMBL document CHEMBL5120782, “Structure and Candidate Biosynthetic Gene Cluster of a Manumycin-Type Metabolite from Salinispora pacifica” (J Nat Prod, 2022):

Experiments:
[1] = Antibacterial activity against Bacillus oceanisediminis CNY-977 assessed as reduction in microbial growth incubated for 18 hrs by CLSI based method; type: functional; settings: Cytobacillus oceanisediminis
NCI-H460 = assay: Cytotoxicity against human NCI-H460 cells assessed as reduction in cell viability incubated for 48 hrs by MTT assay; type: functional, cell-based; settings: NCI-H460, 48 h

SMILES	MIC [1] [µM]	EC50 (NCI-H460) [µM]
CC(C)=C[C@H](C)C[C@H](C)/C=C(\CO)C(=O)NC1=C[C@](O)(CCC(N)=O)[C@H]2O[C@H]2C1=O	50	–
CCCC/C=C/C=C/C=C/C=N/NN=O	–	5.5
